36 molecules from patent US20240409557A1, “5,6-FUSED AND 6,6-FUSED BICYCLIC ALCOHOLS AND ETHERS AND COMPOSITIONS FOR USE AS 15-PROSTAGLANDIN DEHYDROGENASE MODULATORS” (AMGEN INC., priority 2023, published 2024) can be followed below.

Broadly, the IC50 is the concentration needed to halve the response being measured.

This experiment has as its target T1, human recombinant 15-PGDH (Homo sapiens, UniProt P15428).
T1 sequence (P15428 1-266): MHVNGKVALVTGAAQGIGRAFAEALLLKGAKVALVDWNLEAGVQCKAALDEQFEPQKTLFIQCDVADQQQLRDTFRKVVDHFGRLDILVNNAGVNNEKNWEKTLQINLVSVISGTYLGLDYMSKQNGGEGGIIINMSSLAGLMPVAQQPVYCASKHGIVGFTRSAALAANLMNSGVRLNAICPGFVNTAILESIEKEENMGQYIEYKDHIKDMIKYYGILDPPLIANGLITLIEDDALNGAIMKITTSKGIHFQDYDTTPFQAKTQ
The experiment is described as follows: Recombinant 15-PGDH enzymatic inhibition assay (PGDH-Lumi, NADH signal). It counts as biochemical. To be noted: recombinant 15-PGDH; 15 min pre-incubation, 60 min reaction with PGE2 and NAD+, NADH signal. The protocol: These assays measured 15-PGDH enzymatic activity by quantifying the amount of NADH produced during a 60-minute reaction initiated by the addition of PGE2 and NAD+. Under the conditions of these experiments, the increase of NADH signal upon oxidation of PGE2 and reduction of NAD+ was linearly proportional to 15-PGDH enzymatic activity. The recombinant human, mouse, rat and dog 15-PGDH enzymatic assays were performed in a 25 μL volume of reaction buffer containing 50 mM Tris, pH 7.5, 0.01% Tween-20 and […] DTT in a 384-well microtiter plate. In concentration-response experiments with tested compounds, 22 concentrations from 2-fold serial dilutions in DMSO were pre-incubated with 15-PGDH for 15 minutes at room temperature. Then, PGE2 and β-NAD+ were added to initiate the 15-PGDH reaction. After 60 minutes at room temperature, the reaction was quenched and NADH signal was measured using a microtiter plate reader.
The following data (Table 27-1) provides the IC50 in μM of each compound for inhibiting enzymatic activity of the recombinant 15-PGDH in the assay described above.
Turning to `Cn1cc2cc(-c3ccc4cc([C@@H](O)C5CCC(F)(F)CC5)sc4n3)cnc2n1` (single isomer, unassigned) [Compound B31S], the IC50 was 5.64 nM.

For the molecule `CC(O)c1cc2c(-c3ccnn3C)cc(-c3ccnn3C)nc2s1` (stereo not drawn) [Compound B9, 1-(4,6-bis(1-methyl-1H-pyrazol-5-yl)thieno[2,3-b]pyridin-2-yl)ethanol], the IC50 came to 17700 nM. As for `Cn1cnc(-c2ccc3cc([C@@H](O)C4CC(F)(F)C4)sc3n2)cc1=O` (single isomer, unassigned) [Compound B49S], the figure is 9.3 nM. The figure for `Cn1cc2cc(-c3ccc4cc(C(C)(C)O)sc4n3)cnc2n1` [Compound C9, 2-(6-(2-methyl-2H-pyrazolo[3,4-b]pyridin-5-yl)thieno[2,3-b]pyridin-2-yl)-2-propanol] is 419 nM; for `Cn1cc2cc(-c3ccc4cc([C@@H](O)C5CCCC5)sc4c3)cnc2n1` (single isomer, unassigned) [Compound B58S] it is 111 nM; for `COCCC(C)(O)c1cc2ccc(-c3cnc4nn(C)cc4c3)nc2s1` (stereo not drawn) [Compound C1, 4-methoxy-2-(6-(2-methyl-2H-pyrazolo[3,4-b]pyridin-5-yl)thieno[2,3-b]pyridin-2-yl)-2-butanol] it is 43.8 nM. The figure for `Cn1cc2cc(-c3ccc4cc([C@@H](CO)C5CC(F)(F)C5)sc4n3)cnc2n1` (single isomer, unassigned) [Compound B80R] is 46.7 nM.

Consider `O[C@H](c1cc2ccc(-c3cncnc3)nc2s1)C1CC(F)(F)C1` (single isomer, unassigned) [Compound B57S], for which the IC50 was found to be 13.2 nM. In the case of `CN1CCC1C(O)c1cc2ccc(-c3cnc4nn(C)cc4c3)nc2s1` (stereo not drawn) [Compound B45], the half-inhibitory concentration (IC50) was found to be 8.64 nM. Take `COCCC(O)c1cc2ccc(-c3cnc4nn(C)cc4c3)cc2s1` (stereo not drawn) [Compound B59, 3-methoxy-1-(6-(2-methyl-2H-pyrazolo[3,4-b]pyridin-5-yl)-1-benzothiophen-2-yl)-1-propanol]: the concentration for half-maximal inhibition (IC50) amounted to 8.41 nM. As for `COCC(C)(O)c1cc2ccc(-c3cnc4nn(C)cc4c3)nc2s1` (stereo not drawn) [Compound C6, 1-methoxy-2-(6-(2-methyl-2H-pyrazolo[3,4-b]pyridin-5-yl)thieno[2,3-b]pyridin-2-yl)-2-propanol], the figure is 544 nM; as for `Cn1cc2cc(-c3ccc4cc([C@]5(O)CCC5(C)C)sc4n3)cnc2n1` (single isomer, unassigned) [Compound C65S], 1990 nM; as for `CN1CCCC(O)(c2cc3ccc(-c4cnc5nn(C)cc5c4)nc3s2)C1` (stereo not drawn) [Compound C13, 1-methyl-3-(6-(2-methyl-2H-pyrazolo[3,4-b]pyridin-5-yl)thieno[2,3-b]pyridin-2-yl)-3-piperidinol], 761 nM. As for `Cn1nnc2cc(-c3ccc4cc([C@@H](O)C5CCOCC5)sc4n3)cnc21` (single isomer, unassigned) [Compound B41S], the figure is 151 nM. The figure for `CCC(O)(c1cc2ccc(-c3cnc4nn(C)cc4c3)nc2s1)C(F)(F)F` (stereo not drawn) [Compound C14, 1,1,1-trifluoro-2-(6-(2-methyl-2H-pyrazolo[3,4-b]pyridin-5-yl)thieno[2,3-b]pyridin-2-yl)-2-butanol] is 555 nM. With `Cn1cc2cc(-c3ccc4cc(C(C)(O)C(F)(F)F)sc4n3)cnc2n1` (stereo not drawn) [Compound C2, 1,1,1-trifluoro-2-(6-(2-methyl-2H-pyrazolo[3,4-b]pyridin-5-yl)thieno[2,3-b]pyridin-2-yl)-2-propanol], the IC50 came out at 225 nM. As for `COCc1cc2c(C3(COC)CCC3)cc(-c3cnc4nn(C)cc4c3)nc2s1` [Compound A4, 5-(2-(methoxymethyl)-4-(1-(methoxymethyl)cyclobutyl)thieno[2,3-b]pyridin-6-yl)-2-methyl-2H-pyrazolo[3,4-b]pyridine], the figure is above 100000 nM; as for `COCCC(O)(c1cc2ccc(-c3cnc4nn(C)cc4c3)nc2s1)C(F)(F)F` (stereo not drawn) [Compound C3, 1,1,1-trifluoro-4-methoxy-2-(6-(2-methyl-2H-pyrazolo[3,4-b]pyridin-5-yl)thieno[2,3-b]pyridin-2-yl)-2-butanol], 807 nM. The figure for `Cc1n[nH]c2ccc(-c3ccc4cc([C@H](O)C5CCOCC5)sc4n3)cc12` (single isomer, unassigned) [Compound B40R] is 7.16 nM; for `C[C@H](O)c1cc2c(C3CC3)cc(-c3cnc4nn(C)cc4c3)nc2s1` (single isomer, unassigned) [Compound B11S] it is 98.1 nM. The figure for `Cn1cc2cc(-c3cnc4sc([C@@H](O)C5CC(F)(F)C5)cc4n3)cnc2n1` [Compound B96S, (S)-(3,3-difluorocyclobutyl)(2-(2-methyl-2H-pyrazolo[3,4-b]pyridin-5-yl)thieno[2,3-b]pyrazin-6-yl)methanol] is 3.1 nM. Regarding `O=C1NCc2cc(-c3ncc4cc([C@]5(O)C[C@@H](C(F)(F)F)C5)sc4n3)cnc21` [Compound C128C, 3-(6-(cis-1-hydroxy-3-(trifluoromethyl)cyclobutyl)thieno[2,3-d]pyrimidin-2-yl)-5,6-dihydro-7H-pyrrolo[3,4-b]pyridin-7-one], the half-maximal inhibitory concentration (IC50) was 0.62 nM. The figure for `[2H][C@@](O)(c1cc2ccc(-c3cnc4nn(C)cc4c3)nc2s1)C1CCOCC1` (single isomer, unassigned) [Compound B66S] is 155 nM. The figure for `CN1CCC(C(O)c2cc3ccc(-c4cnc5nn(C)cc5c4)nc3s2)C1` (stereo not drawn) [Compound B62, (6-(2-methyl-2H-pyrazolo[3,4-b]pyridin-5-yl)thieno[2,3-b]pyridin-2-yl)(1-methyl-3-pyrrolidinyl)methanol] is 20.7 nM. As for `Cn1cc2cc(-c3ccc4cc(CO)sc4n3)cnc2n1` [Compound A1, (6-(2-methyl-2H-pyrazolo[3,4-b]pyridin-5-yl)thieno[2,3-b]pyridin-2-yl)methanol], the figure is 159 nM; as for `CN(C)c1c(CO)c(-c2cnc3nn(C)cc3c2)nc2sc(CO)cc12` [Compound A2, (4-(dimethylamino)-6-(2-methyl-2H-pyrazolo[3,4-b]pyridin-5-yl)thieno[2,3-b]pyridine-2,5-diyl)dimethanol], 2160 nM; as for `Cn1cc2cc(-c3ccc4cc(C(O)(C5CC5)C(F)(F)F)sc4n3)cnc2n1` (stereo not drawn) [Compound C17, 1-cyclopropyl-2,2,2-trifluoro-1-(6-(2-methyl-2H-pyrazolo[3,4-b]pyridin-5-yl)thieno[2,3-b]pyridin-2-yl)ethanol], 1260 nM. On to `Cn1cc2cc(-c3ccc4cc(C5(O)CCOC5)sc4n3)cnc2n1` (stereo not drawn) [Compound C20, 3-(6-(2-methyl-2H-pyrazolo[3,4-b]pyridin-5-yl)thieno[2,3-b]pyridin-2-yl)tetrahydro-3-furanol], for which the IC50 came to 86 nM. `CN1CCC(O)(c2cc3ccc(-c4cnc5nn(C)cc5c4)nc3s2)C1` (stereo not drawn) [Compound C4, 1-methyl-3-(6-(2-methyl-2H-pyrazolo[3,4-b]pyridin-5-yl)thieno[2,3-b]pyridin-2-yl)-3-pyrrolidinol]: the IC50 stood at 1800 nM. As for `Cn1ncc2cc(-c3ccc4cc(C(O)C5CCOCC5)sc4n3)ccc21` (stereo not drawn) [Compound B34, (6-(1-methyl-1H-indazol-5-yl)thieno[2,3-b]pyridin-2-yl)(tetrahydro-2H-pyran-4-yl)methanol], the figure is 20.7 nM. As for `Cc1n[nH]c2ccc(-c3ccc4cc([C@@H](O)C5CCOCC5)sc4n3)cc12` (single isomer, unassigned) [Compound B40S], the figure is 3400 nM. Take `CCCC(O)c1cc2ccc(-c3cnc4nn(C)cc4c3)cc2s1` (stereo not drawn) [Compound B54, 1-(6-(2-methyl-2H-pyrazolo[3,4-b]pyridin-5-yl)-1-benzothiophen-2-yl)-1-butanol]: the concentration for half-maximal inhibition (IC50) came out at 9.35 nM.

On to `Cn1nnc2cc(-c3ccc4cc([C@@H](O)C5CC(F)(F)C5)sc4n3)cnc21` [Compound B82S, (S)-(3,3-difluorocyclobutyl)(6-(3-methyl-3H-[1,2,3]triazolo[4,5-b]pyridin-6-yl)thieno[2,3-b]pyridin-2-yl)methanol], for which the IC50 amounted to 1.65 nM. As for `Cn1cc2cc(-c3ccc4cc(C(C)(O)C5CC5)sc4n3)cnc2n1` (stereo not drawn) [Compound C11, 1-cyclopropyl-1-(6-(2-methyl-2H-pyrazolo[3,4-b]pyridin-5-yl)thieno[2,3-b]pyridin-2-yl)ethanol], the figure is 101 nM; as for `COC(c1cc2c(-c3ccnn3C)cc(-c3cnc4nn(C)cc4c3)nc2s1)C1CCC1` (stereo not drawn) [Compound B4], 39.7 nM. The figure for `Cc1cc2[nH]ncc2cc1-c1ccc2cc([C@H](O)C3CCOCC3)sc2n1` (single isomer, unassigned) [Compound B38R] is 93 nM.
